Test results taken from patent US20160060260A1, “BROMODOMAIN INHIBITORS FOR TREATING DISEASE” (Board of Regents, The University of Texas System, priority 2014, published 2016).

The molecules below were run against T1, Recombinant human His-tagged Trim24-PHD-bromodomain (Homo sapiens, UniProt O15164) (assay: Trim24 AlphaScreen Assay). Conditions: 5 nM Trim24 protein, 15 nM biotinylated H3K23ac (1-33aa) peptide.
T1 construct: Recombinant human His-tagged Trim24-PHD-bromodomain (produced in-house); made in house
T1 sequence (O15164 824-1006 limits assumed): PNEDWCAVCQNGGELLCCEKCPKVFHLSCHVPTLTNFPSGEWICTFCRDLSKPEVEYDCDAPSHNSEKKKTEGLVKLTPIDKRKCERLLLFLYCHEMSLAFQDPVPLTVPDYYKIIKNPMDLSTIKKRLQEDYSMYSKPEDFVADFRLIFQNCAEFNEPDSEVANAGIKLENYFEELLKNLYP
Format: binding
Method: Recombinant human His-tagged Trim24-PHD-bromodomain (produced in-house), biotinylated H3K23ac (1-33aa) peptide (AnaSpec, Inc.), and test compound were added to a 384-well OptiPlate (Perkin Elmer) and incubated at room temperature for one hour. The assay buffer consisted of 50 mM Hepes, pH 7.5, 100 mM NaCl, and 0.12 mM Triton X-100.
Streptavidin donor beads and nickel chelate acceptor beads, both from a Perkin Elmer AlphaScreen Histidine Detection Kit, were then added to the Optiplate to a final concentration of 10 ug/mL each. Following a 2 hour incubation at room temperature, the microplate was read on an Envision Plate Reader (Perkin Elmer). Percent of control (POC) values were calculated from the following formula:
POC=[sample signal-average background signal]/[average maximum signal−average background signal]*100
The average maximum signal was obtained from wells containing all assay components except test compound. The average background signal pertained to wells with all assay components except Trim24 and test compound. IC50 values were calculated using a four-parameter logistic curve fit.

Row | IC50 | Compound
1 | > 1 µM | Cn1cnc(S(=O)(=O)Nc2cc3c(cc2Oc2cccc(OCc4cccc(C#N)c4)c2)n(C)c(=O)n3C)c1 [Example 40, N-(6-(3-((3-cyanobenzyl)oxy)phenoxy)-1,3-dimethyl-2-oxo-2,3-dihydro-1H-benzo[d]imidazol-5-yl)-1-methyl-1H-imidazole-4-sulfonamide]
2 | 0.1 to 1 µM | Cc1c(S(=O)(=O)Nc2cc3c(cc2Oc2cccc(OCc4ccccc4)c2)n(C)c(=O)n3C)cnn1C [Example 41, N-(6-(3-(benzyloxy)phenoxy)-1,3-dimethyl-2-oxo-2,3-dihydro-1H-benzo[d]imidazol-5-yl)-1,5-dimethyl-1H-pyrazole-4-sulfonamide]
3 | 0.1 to 1 µM | CCn1nccc1S(=O)(=O)Nc1cc2c(cc1Oc1cccc(OCc3ccccc3)c1)n(C)c(=O)n2C [Example 42, N-(6-(3-(benzyloxy)phenoxy)-1,3-dimethyl-2-oxo-2,3-dihydro-1H-benzo[d]imidazol-5-yl)-1-ethyl-1H-pyrazole-5-sulfonamide]
4 | 0.1 to 1 µM | Cn1c(=O)n(C)c2cc(Oc3cccc(OCc4ccccc4)c3)c(NS(=O)(=O)c3cccc(F)c3)cc21 [Example 43, N-(6-(3-(benzyloxy)phenoxy)-1,3-dimethyl-2-oxo-2,3-dihydro-1H-benzo[d]imidazol-5-yl)-3-fluorobenzenesulfonamide]
5 | 0.1 to 1 µM | COc1cc(OC)cc(S(=O)(=O)Nc2cc3c(cc2Oc2cccc(OCc4ccccc4)c2)n(C)c(=O)n3C)c1 [Example 44, N-(6-(3-(benzyloxy)phenoxy)-1,3-dimethyl-2-oxo-2,3-dihydro-1H-benzo[d]imidazol-5-yl)-3,5-dimethoxybenzenesulfonamide]

Continued, molecule first:

Row | Compound | IC50
6 | CCc1cccc(S(=O)(=O)Nc2cc3c(cc2Oc2cccc(OCc4ccccc4)c2)n(C)c(=O)n3C)c1 [Example 33, N-(6-(3-(benzyloxy)phenoxy)-1,3-dimethyl-2-oxo-2,3-dihydro-1H-benzo[d]imidazol-5-yl)-3-ethylbenzenesulfonamide] | > 1 µM
7 | Cc1cccc(S(=O)(=O)Nc2cc3c(cc2Oc2cccc(OCc4ccccc4)c2)n(C)c(=O)n3C)c1 [Example 34, N-(6-(3-(benzyloxy)phenoxy)-1,3-dimethyl-2-oxo-2,3-dihydro-1H-benzo[d]imidazol-5-yl)-3-methylbenzenesulfonamide] | 0.1 to 1 µM
8 | Cc1ccccc1S(=O)(=O)Nc1cc2c(cc1Oc1cccc(OCc3ccccc3)c1)n(C)c(=O)n2C [Example 35, N-(6-(3-(benzyloxy)phenoxy)-1,3-dimethyl-2-oxo-2,3-dihydro-1H-benzo[d]imidazol-5-yl)-2-methylbenzenesulfonamide] | > 1 µM
9 | Cn1c(=O)n(C)c2cc(Oc3cccc(OCc4ccccc4)c3)c(NS(=O)(=O)c3ccc4c(c3)OCO4)cc21 [Example 36, N-(6-(3-(benzyloxy)phenoxy)-1,3-dimethyl-2-oxo-2,3-dihydro-1H-benzo[d]imidazol-5-yl)benzo[d][1,3]dioxole-5-sulfonamide] | 0.1 to 1 µM
10 | Cn1c(=O)n(C)c2cc(Oc3cccc(OCc4ccccc4)c3)c(NS(=O)(=O)c3ccccc3Br)cc21 [Example 37, N-(6-(3-(benzyloxy)phenoxy)-1,3-dimethyl-2-oxo-2,3-dihydro-1H-benzo[d]imidazol-5-yl)-2-bromobenzenesulfonamide] | > 1 µM
11 | Cn1c(=O)n(C)c2cc(Oc3cccc(OCc4ccccc4)c3)c(NS(=O)(=O)c3cccc(Br)c3)cc21 [Example 38, N-(6-(3-(benzyloxy)phenoxy)-1,3-dimethyl-2-oxo-2,3-dihydro-1H-benzo[d]imidazol-5-yl)-3-bromobenzenesulfonamide] | > 1 µM
12 | Cn1cnc(S(=O)(=O)Nc2cc3c(cc2Oc2cccc(OCc4cccnc4)c2)n(C)c(=O)n3C)c1 [Example 39, N-(1,3-dimethyl-2-oxo-6-(3-(pyridin-3-ylmethoxy)phenoxy)-2,3-dihydro-1H-benzo[d]imidazol-5-yl)-1-methyl-1H-imidazole-4-sulfonamide] | 0.1 to 1 µM
